Molecules are shown by their SMILES.

The target of the assay is T1, Nav1.7 (hNav1.7) (Homo sapiens, UniProt Q15858, F1748A/Y1755A).
T1 construct: gene SCN9A; F1737A/Y1744A mutant hNav1.7 transiently expressed in HEK293 cells
Kind of assay: whole-cell patch clamp, % reduction of peak current at […]. In kind it is cell-based. Conditions: read-out: % block at 200 μM. On the technique in general: The patch-clamp technique gives a direct electrical read-out from membranes.

T1 sequence (Q15858 whole entry F1748A/Y1755A): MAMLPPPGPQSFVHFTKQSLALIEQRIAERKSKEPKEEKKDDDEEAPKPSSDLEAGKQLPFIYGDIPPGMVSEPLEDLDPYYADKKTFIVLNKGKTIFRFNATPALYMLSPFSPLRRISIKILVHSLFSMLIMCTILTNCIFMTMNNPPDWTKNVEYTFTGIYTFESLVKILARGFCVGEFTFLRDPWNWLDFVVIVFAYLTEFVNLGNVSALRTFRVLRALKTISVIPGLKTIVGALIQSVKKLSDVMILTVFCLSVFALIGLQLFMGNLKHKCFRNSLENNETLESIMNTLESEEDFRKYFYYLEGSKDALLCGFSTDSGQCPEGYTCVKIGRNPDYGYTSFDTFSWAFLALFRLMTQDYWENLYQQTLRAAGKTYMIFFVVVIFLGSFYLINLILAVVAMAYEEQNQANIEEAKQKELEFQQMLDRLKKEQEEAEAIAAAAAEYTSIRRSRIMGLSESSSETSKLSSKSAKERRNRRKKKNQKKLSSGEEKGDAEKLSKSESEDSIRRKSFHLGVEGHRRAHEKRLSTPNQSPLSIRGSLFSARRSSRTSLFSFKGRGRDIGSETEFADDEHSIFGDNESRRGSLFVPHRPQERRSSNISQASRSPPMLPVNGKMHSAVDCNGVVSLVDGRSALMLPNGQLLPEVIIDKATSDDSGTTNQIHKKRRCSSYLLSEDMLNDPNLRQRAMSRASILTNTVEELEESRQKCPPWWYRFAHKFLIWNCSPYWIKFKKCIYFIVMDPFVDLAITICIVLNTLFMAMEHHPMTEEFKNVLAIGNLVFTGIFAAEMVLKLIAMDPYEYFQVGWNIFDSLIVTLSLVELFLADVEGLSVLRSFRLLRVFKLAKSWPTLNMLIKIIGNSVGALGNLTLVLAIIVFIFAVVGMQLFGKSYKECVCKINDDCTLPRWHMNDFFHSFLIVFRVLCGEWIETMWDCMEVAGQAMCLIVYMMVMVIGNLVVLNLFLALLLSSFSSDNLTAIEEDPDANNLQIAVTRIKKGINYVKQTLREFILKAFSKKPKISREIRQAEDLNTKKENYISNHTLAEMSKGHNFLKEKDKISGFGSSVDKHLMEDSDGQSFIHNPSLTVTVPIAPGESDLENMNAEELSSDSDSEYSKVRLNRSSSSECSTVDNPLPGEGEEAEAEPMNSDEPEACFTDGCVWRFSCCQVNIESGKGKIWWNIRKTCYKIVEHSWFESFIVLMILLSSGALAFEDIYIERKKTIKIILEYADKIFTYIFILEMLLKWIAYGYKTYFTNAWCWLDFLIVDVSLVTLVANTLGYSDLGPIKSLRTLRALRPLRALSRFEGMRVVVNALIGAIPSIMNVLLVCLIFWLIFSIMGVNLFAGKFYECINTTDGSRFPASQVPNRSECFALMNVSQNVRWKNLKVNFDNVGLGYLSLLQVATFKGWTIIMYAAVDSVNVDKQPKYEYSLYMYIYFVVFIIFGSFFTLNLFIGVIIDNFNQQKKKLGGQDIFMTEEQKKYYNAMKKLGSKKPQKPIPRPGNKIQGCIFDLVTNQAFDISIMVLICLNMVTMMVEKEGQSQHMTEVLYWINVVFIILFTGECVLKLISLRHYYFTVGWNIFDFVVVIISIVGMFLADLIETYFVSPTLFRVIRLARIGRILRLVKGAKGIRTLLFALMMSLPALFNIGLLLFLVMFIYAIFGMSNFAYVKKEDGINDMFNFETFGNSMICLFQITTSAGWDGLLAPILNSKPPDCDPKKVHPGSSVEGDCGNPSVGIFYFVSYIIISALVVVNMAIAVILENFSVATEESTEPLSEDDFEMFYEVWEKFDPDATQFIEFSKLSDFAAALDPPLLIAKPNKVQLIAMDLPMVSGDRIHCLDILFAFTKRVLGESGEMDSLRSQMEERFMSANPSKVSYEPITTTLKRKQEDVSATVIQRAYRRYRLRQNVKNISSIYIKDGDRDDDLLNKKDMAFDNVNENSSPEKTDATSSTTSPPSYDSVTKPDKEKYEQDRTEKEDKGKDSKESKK

For the molecule `N#Cc1c(O)c2c(-c3ccc(-c4ccccc4O)cc3)csc2[nH]c1=O` [A769662], the inhibition at 200 µM was 38%.

The values above are taken from paper PMC5261566, “The AMPK Activator A769662 Blocks Voltage-Gated Sodium Channels: Discovery of a Novel Pharmacophore with Potential Utility for Analgesic Development” (PLoS ONE, 2017).
